Assay results taken from patent US4414207A, “Rutin poly(H-)sulfate salts and related compounds” (American Cyanamid Company, priority 1982, dated 1983).

Key:
[1] = system: shunt pathway activated by cobra venom factor; experiment: Test Code 036 (C-Shunt inhibitor); type: cell-based; conditions: fragile human erythrocytes in autologous serum
From the text: (§1) An active inhibitor protects C2 from C1 and C4; (ii) Test Code 035 (C3-C9 inhibitor)--This test determines the ability of the late components of human complement (C3-C9) to lyse EAC 142 in the presence of appropriate dilutions of the test compound. An active inhibitor protects EAC 142 from lysis by human C3-C9; (iii) Test Code 036 (C-Shunt inhibitor)--In this test human erythrocytes rendered fragile are lysed in autologous serum via the shunt pathway activated by cobra venom factor in the presence of appropriate dilutions of the test compound. Inhibition of the shunt pathway results in failure of lysis; (iv) Forssman Vasculitis Test--Here, the well known complement dependent lesions, Forssman vasculitis, is produced in guinea pigs by intradermal injection of rabbit anti-Forssman antiserum. The lesion is measured in terms of diameter, edema and hemorrhage and the extent to which a combined index of these is inhibited by prior intraperitoneal injection of the test compound at 200 mg/kg is then reported, unless otherwise stated; (v) Forssman Shock Test--Lethal shock is produced in guinea pigs by an i.v. injection of anti-Forssman antiserum and the harmonic mean death time of treated guinea pigs is compared with that of simultaneous controls; (vi) Complement Level Reduction Test--In this test, the above dosed guinea pigs, or others, are bled for serum and the complement level is determined in undiluted serum by the capillary tube method of U.S. Pat. No. 3,876,376 and compared to undosed control guinea pigs; and (vii) Cap 50 Test--Here, appropriate amounts of the test compound are added to a pool of guinea pig serum in vitro, after which the undiluted serum capillary tube assay referred to above is run. The concentration of compound inhibiting 50% is reported, (viii) Guinea Pig Intraperitoneal Test (GPIP)--Guinea Pigs weighing about 300 g. are dosed intraperitoneally (i.p.) with 200 mg/kg of the test compound dissolved in saline and adjusted to pH 7-8. […] Percent inhibition are calculated by comparison with simultaneous controls. […]

activated human C1 = biological target: T1, activated human C1 (Homo sapiens, UniProt P09871); experiment: Test Code 026 (C1 inhibitor); type: biochemical; conditions: serial dilution assay, twofold dilutions; higher well number indicates higher activity
T1 sequence (P09871 438-688 limits assumed): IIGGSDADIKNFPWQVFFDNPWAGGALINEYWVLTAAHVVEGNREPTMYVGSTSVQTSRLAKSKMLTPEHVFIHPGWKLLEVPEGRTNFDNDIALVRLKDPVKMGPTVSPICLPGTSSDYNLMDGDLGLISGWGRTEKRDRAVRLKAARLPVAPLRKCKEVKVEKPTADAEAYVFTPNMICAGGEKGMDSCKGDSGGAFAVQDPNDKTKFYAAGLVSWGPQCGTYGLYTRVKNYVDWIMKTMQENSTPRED
T1 sequence (P09871 16-437 limits assumed): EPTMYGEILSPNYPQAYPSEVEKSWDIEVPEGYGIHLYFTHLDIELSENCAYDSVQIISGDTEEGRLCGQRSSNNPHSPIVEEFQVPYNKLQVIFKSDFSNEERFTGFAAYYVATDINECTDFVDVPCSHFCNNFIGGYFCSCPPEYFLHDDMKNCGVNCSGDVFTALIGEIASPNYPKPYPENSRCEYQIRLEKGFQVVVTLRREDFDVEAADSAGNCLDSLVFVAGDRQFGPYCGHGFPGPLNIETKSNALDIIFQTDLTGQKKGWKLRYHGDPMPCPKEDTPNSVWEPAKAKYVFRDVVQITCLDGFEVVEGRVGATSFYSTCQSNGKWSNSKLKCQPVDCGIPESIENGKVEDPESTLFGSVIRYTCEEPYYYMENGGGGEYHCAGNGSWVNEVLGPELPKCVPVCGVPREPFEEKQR
From the text: as §1

[2] = system: late components of human complement (C3-C9); experiment: Test Code 035 (C3-C9 inhibitor); type: biochemical; conditions: lysis of EAC 142 by human C3-C9
From the text: as §1

[3] = system: complement activity of sera; experiment: Guinea Pig Intraperitoneal Test (GPIP); type: in vivo; conditions: 200 mg/kg i.p.
From the text: as §1

guinea pigs = experiment: Forssman Shock Test; type: in vivo, guinea pig; conditions: i.v. anti-Forssman antiserum, Control 3.3
From the text: (§2) An active inhibitor protects C2 from C1 and C4; (ii) Test Code 035 (C3-C9 inhibitor)--This test determines the ability of the late components of human complement (C3-C9) to lyse EAC 142 in the presence of appropriate dilutions of the test compound. An active inhibitor protects EAC 142 from lysis by human C3-C9; (iii) Test Code 036 (C-Shunt inhibitor)--In this test human erythrocytes rendered fragile are lysed in autologous serum via the shunt pathway activated by cobra venom factor in the presence of appropriate dilutions of the test compound. Inhibition of the shunt pathway results in failure of lysis; (iv) Forssman Vasculitis Test--Here, the well known complement dependent lesions, Forssman vasculitis, is produced in guinea pigs by intradermal injection of rabbit anti-Forssman antiserum. […] Percent inhibition are calculated by comparison with simultaneous controls. […]

complement = complement inhibiting activity using the tests disclosed herein; conditions: stated in words
From the text: as §2

Compound | 036 (C-Shunt inhibitor) [1] | 026 (C1 inhibitor), activity in wells (activated human C1) | 035 (C3-C9 inhibitor) [2] | In vivo activity (Guinea Pig) Intraperitoneal % Inhibition, 30 minutes ([3]; serum complement 30 minutes after injection) | In vivo activity (Guinea Pig) Intraperitoneal % Inhibition, 60 minutes ([3]; serum complement 60 minutes after injection) | In vivo activity (Guinea Pig) Intraperitoneal % Inhibition, 120 minutes ([3]; serum complement 120 minutes after injection) | Forssman Shock (harmonic mean death time) (guinea pigs) | complement inhibiting activity (complement)
C[C@@H]1O[C@@H](OC[C@H]2O[C@@H](Oc3c(-c4ccc(O)c(O)c4)oc4cc(O)cc(O)c4c3=O)[C@H](O)[C@@H](O)[C@@H]2O)[C@H](O)[C@H](O)[C@H]1O [Rutin] | N | N | N |  |  |  |  | 
Rutin poly(H-)sulfate, sodium salt | N | +7 wells | N | -79% | -89% | -89% | 17.2 min | 
Rutin poly(H-)sulfate, sodium salt (original source commercial `Rutin water soluble`) |  |  |  |  |  |  |  | highly active
Rutin poly(H-)sulfate, trimethylamine salt | N | +2 wells | N |  |  |  |  | 
